Assay type in all cases: biochemical
In test [1] the test system is RY2 laccase variant L3 (+D263V; F392N, F396I, F460M, D263V). The experiment in a line: Kinetic constants for the oxidation of ABTS and DMP by pure laccase. As to the method: (§1) Flask production and purification. The S. cerevisiae clones expressing selected laccase variants were grown in duplicate, in 100mL flasks with 30mL expression medium (containing […] and 3% ethanol) (Camarero et al. Applied and Environmental Microbiology 2012, 78,5). […] After 3 days of fermentation, cultures were treated as previously described (De Salas et al. Green Chemistry 2019 21, 5374-5385). Purification of the enzymes by High Pressure Liquid Chromatography (HPLC) was carried out in 3 chromatographic steps: two anion exchange steps using a HiPrep-QFF 16/10 column in a 100mL gradient of 0-40% elution buffer, and a MonoQ-HR 5/5 column in a 30mL gradient of 0-25% elution buffer, followed by size exclusion chromatography with a Superdex75. Fractions containing laccase activity (with 3mM ABTS in 50mM citrate-phosphate pH 3) were pooled, dialyzed in Tris-HCI pH 7 and concentrated after each chromatographic step. Enzyme purification was confirmed by the electrophoretic mobility in SDS-PAGE (12% acrylamide) stained with Coomassie brilliant blue.
(§2) To calculate Km and kcat values the average Vmax was represented versus substrate concentration and fitted to a single rectangular hyperbola function in SigmaPlot (version 14.0) software, where parameter "a" was equal to kcat and parameter "b" was equal to Km.

The subject of test [2] is RY2 laccase variant L4 (+A458L; F392N, F396I, F460M, D263V, A458L). The test is described as above. As to the method: as §1, §2
The target in test [3] is RY2 laccase (parental enzyme, SEQ ID NO: 1) (basidiomycete PM1, UniProt Q12571). The procedure:
as §1, §2

For test [4], the target named is RY2 laccase variant L2 (+F460M; F392N, F396I, F460M) (basidiomycete PM1, UniProt Q12571, F413N/F417I/F481M, form not given). The procedure:
as §1, §2

The term Km denotes the substrate concentration at which the rate is half of its maximum. The kcat is the number of substrate molecules converted per active site and unit of time at saturation.

Read-outs that look alike come from different tables or passages of the source.

RY2 laccase variant L2 (+F460M; F392N, F396I, F460M), sequence (Q12571 entry or part of it F413N/F417I/F481M, form open): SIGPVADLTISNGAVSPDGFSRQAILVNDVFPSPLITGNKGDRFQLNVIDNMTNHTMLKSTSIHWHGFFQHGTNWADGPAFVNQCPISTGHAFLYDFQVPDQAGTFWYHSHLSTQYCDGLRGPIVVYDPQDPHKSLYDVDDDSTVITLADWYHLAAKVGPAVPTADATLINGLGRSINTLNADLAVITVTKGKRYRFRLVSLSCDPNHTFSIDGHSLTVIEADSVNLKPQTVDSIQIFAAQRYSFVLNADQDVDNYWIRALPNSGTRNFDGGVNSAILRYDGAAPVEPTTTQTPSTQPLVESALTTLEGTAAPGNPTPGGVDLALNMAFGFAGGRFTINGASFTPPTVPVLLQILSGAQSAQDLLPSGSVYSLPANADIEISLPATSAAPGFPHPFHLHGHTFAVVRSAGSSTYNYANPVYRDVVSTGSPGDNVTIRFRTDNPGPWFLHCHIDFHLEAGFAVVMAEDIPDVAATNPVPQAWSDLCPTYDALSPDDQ
RY2 laccase (parental enzyme, SEQ ID NO: 1), sequence (Q12571 entry or part of it): as the sequence (Q12571 entry or part of it F413N/F417I/F481M, form open) above

On to `COc1cccc(OC)c1O` [DMP, 2,6-dimethoxyphenol], for which the Km stood at 1500 ± 120 µM in test [1] (substrate DMP, pH 8); 300 ± 30 µM in test [1] (substrate DMP, pH 9); 27 ± 1 µM in test [1] (substrate DMP, pH 10); 1710 ± 100 µM in test [2] (substrate DMP, pH 8); 430 ± 10 µM in test [2] (substrate DMP, pH 9); 22 ± 2 µM in test [2] (substrate DMP, pH 10). The kcat in test [1] (substrate DMP, pH 8) came out at 82.3 ± 7.6 s⁻¹; in test [1] (substrate DMP, pH 9), 21.7 ± 1.3 s⁻¹; in test [1] (substrate DMP, pH 10), 0.79 ± 0.03 s⁻¹; in test [2] (substrate DMP, pH 9), 26 ± 0.28 s⁻¹; in test [2] (substrate DMP, pH 10), 2 ± 0.05 s⁻¹; in test [3] (substrate DMP, pH 5), 123 ± 6 s⁻¹. Moreover, the kcat was 89 ± 6.2 s⁻¹ in test [4] (substrate DMP, pH 8) and 9.5 ± 0.1 s⁻¹ in test [4] (substrate DMP, pH 9).

Turning to `CCn1c(=NN=c2sc3cc(S(=O)(=O)O)ccc3n2CC)sc2cc(S(=O)(=O)O)ccc21` [ABTS], the Km in test [1] (substrate ABTS, pH 3) is 460 ± 40 µM; in test [2] (substrate ABTS, pH 3) it was 680 ± 40 µM. Also, the kcat in test [1] (substrate ABTS, pH 3) was 123 ± 5.5 s⁻¹; in test [2] (substrate ABTS, pH 3), 136 ± 2.7 s⁻¹; in test [3] (substrate ABTS, pH 3) it was 543 ± 17 s⁻¹; in test [4] (substrate ABTS, pH 3), 231 ± 5.6 s⁻¹.

Source of the values: patent EP4174174A1, “TAILOR-MADE EXTREMOPHILIC FUNGAL LACCASES” (priority 2021, dated 2023).
